# Measured values as given in patent publication US4314999A, “N-Acyl derivatives of glucosamine having antitumor chemotherapeutic acitivity” (Proter S.p.A., priority 1980, dated 1982).
# System: Leukemia L 1210
# Assay: Survival (MST, ILS, T/C%) of mice inoculated i.p. with Leukemia L 1210, compound given orally
# Format: in vivo
# Parameters: Increase in Life Span (ILS): unit not given here
# Conditions: for Survivors: of 10 mice
# Procedure: The chemotherapeutic activity of the compound ethyl-D-glucosamyl-L-aspartoyl(β-ethoxy)-D-glucosamyl)m-di(2-chloroethylamino)-L-phenylalanyl-p-fluoro-L-phenylalanine was evaluated by conducting trials on mice injected with cells of Leukemia 1210 according to the procedure established in Cancer Chemotherapy Reports 1972, Vol. 3, No. 2: Protocols for Screening Chemical Agents and Natural Products Against Animal Tumors and other Biological Systems (Third Edition, National Cancer Institute, Bethesda, Maryland. The experimental model employed for the evaluation is:
# Determination of the MST (Mean Survival Time) of BDGI mice inoculated intraperitoneally with 10^5 cells of lymphoid Leukenia L 1210 deriving from regular implants in DBA2 mice. The MST was determined both on the controls and on the animals treated, and thereafter an evaluation was made of the ILS (Increased Life Span) according to Cancer Chemotherapy Reports 1972, Vol. 3, No. 2 (Protocols for Screening Chemical Agents and Natural Products Against Animal Tumors and other Biological Systems--Third Edition, National Cancer Institute, Bethesda, Maryland). In this case, the compounds were tested only after oral administration starting from the 3rd day after implant of the tumor and continuing on the 17th, 25th and 35th day. On the 52nd day, any surviving animals were sacrificed and the experiment discontinued and evaluated.
# The formula for the calculation of mean survival time is: [formula] wherein Day A=Day on which deaths are no longer considered due to drug toxicity - For Leukemia L 1210 day A=day 6
# Day B=This day cannot be considered here because all control animals died within the 11th day and survivors were not observed.
# S=The total of survivors from 6th day onwards
# S(A-1)=Number of survivors at the end of day 5 (A-1)=S5
# The ILS and the ratio T/C% are calcuated as follows: […]
# [1] = Table, oral 25, 15, 10, 5 mg/Kg on days 3, 17, 25, 35, L 1210 mice
substance,measurement,setting,value
Ethyl-D-glucosamyl-L-aspartoyl(β-ethoxy)-D-glucosamyl-m-di-(2-chloroethyl)amino-L-phenylalanyl-p-fluoro-phenylalanine,I.L.S.,[1],186.4
same,M.S.T.,[1],32.7
same,T/C %,[1],311.4%
same,Survivors,"day 3 from inoculum, oral 25 mg/Kg given this day",10
same,Survivors,day 4 from inoculum,10
same,Survivors,day 5 from inoculum,10
same,Survivors,day 6 from inoculum,10
same,Survivors,day 7 from inoculum,10
same,Survivors,day 8 from inoculum,10
same,Survivors,day 9 from inoculum,10
same,Survivors,day 10 from inoculum,10
same,Survivors,day 11 from inoculum,10
same,Survivors,day 12 from inoculum,10
same,Survivors,day 13 from inoculum,10
same,Survivors,day 14 from inoculum,10
same,Survivors,day 15 from inoculum,10
same,Survivors,day 16 from inoculum,10
same,Survivors,"day 17 from inoculum, oral 15 mg/Kg given this day",10
same,Survivors,day 18 from inoculum,10
same,Survivors,day 19 from inoculum,8
same,Survivors,day 20 from inoculum,8
same,Survivors,day 21 from inoculum,6
same,Survivors,day 22 from inoculum,6
same,Survivors,day 23 from inoculum,6
same,Survivors,day 24 from inoculum,6
same,Survivors,"day 25 from inoculum, oral 10 mg/Kg given this day",6
same,Survivors,day 26 from inoculum,6
same,Survivors,day 27 from inoculum,6
same,Survivors,day 28 from inoculum,6
same,Survivors,day 29 from inoculum,6
same,Survivors,day 30 from inoculum,5
same,Survivors,day 31 from inoculum,5
same,Survivors,day 32 from inoculum,5
same,Survivors,day 33 from inoculum,5
same,Survivors,day 34 from inoculum,4
same,Survivors,"day 35 from inoculum, oral 5 mg/Kg given this day",4
same,Survivors,day 36 from inoculum,4
same,Survivors,day 37 from inoculum,4
same,Survivors,day 38 from inoculum,4
same,Survivors,day 39 from inoculum,4
same,Survivors,day 40 from inoculum,3
same,Survivors,day 41 from inoculum,3
same,Survivors,day 42 from inoculum,2
same,Survivors,day 43 from inoculum,2
same,Survivors,day 44 from inoculum,2
same,Survivors,day 45 from inoculum,2
same,Survivors,day 46 from inoculum,2
same,Survivors,day 47 from inoculum,2
same,Survivors,day 48 from inoculum,2
same,Survivors,day 49 from inoculum,1
same,Survivors,day 50 from inoculum,1
same,Survivors,day 51 from inoculum,1
same,Survivors,day 52 from inoculum,0
same,Mean Survival Time (MST),"ten mice, 10^5 L 1210 cells i.p., oral 25, 15, 10, 5 mg/kg on days 3, 17, 25, 35",32.7 days
same,Increase in Life Span (ILS),"ten mice, 10^5 L 1210 cells i.p., oral 25, 15, 10, 5 mg/kg on days 3, 17, 25, 35, calculated as 311.4-125",186.4
same,T/C% (MST of the treated group divided by the MST of the control group),"ten mice, 10^5 L 1210 cells i.p., oral 25, 15, 10, 5 mg/kg on days 3, 17, 25, 35, control MST 10.5",311.4%
